Measurements published in US7807673B2, “2-pyrimidinyl pyrazolopyridine ErbB kinase inhibitors” (GlaxoSmithKline LLC, priority 2005, dated 2010).

Experiments:
ErbB2 or EGFR = target: T1, ErbB2 or EGFR; experiment: ErbB enzyme substrate phosphorylation assay (HTRF), Method B (enzyme pre-incubated with compound 1 hour); format: biochemical; settings: Table 1, enzyme Method B: enzyme mix incubated with compound 1 hour at 20° C., reaction started with substrate mix; class over ErbB2 or EGFR
T1 construct: enzymes purified from a baculovirus expression system
Procedure, shortened: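 Baculovirus-expressed kinase (0.8 nM EGFR or 10 nM ErbB2 in enzyme mix) phosphorylated biotinylated Peptide C (0.8 µM in substrate mix) with 20 µM ATP in substrate mix, MOPS pH 7.5, MnCl2, 90 min at 20 °C. Method A started with enzyme; Method B pre-incubated enzyme with compound 1 h at 20 °C. HTRF read-out; IC50 from 12-point curve (0.00027–47.6 µM), reported as pIC50.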

[1] = test system: BT474 and HN5 tumor cell lines; experiment: Methylene blue growth inhibition assay (cellular Method A); format: cell-based; settings: Homo sapiens, BT-474 and HN5, 72 h; Table 2, Method A methylene blue, 3 days; class over BT474 and HN5;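 note: class counts the more potent of the two cell lines (BT474 or HN5)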
Procedure: (§1) Human breast (BT474) and head and neck (HN5) were cultured in low glucose DMEM (Life Technologies 12320-032) containing 10% fetal bovine serum (FBS). Human colon tumor cells (Colo205) were cultured in DMEM (Invitrogen, 10564) containing 10% FBS. The SV40 transformed human mammary epithelial cell line to HB4a was transfected with either human H-ras cDNA (HB4a r4.2) or the human c-ErbB2 cDNA (HB4a c5.2). The HB4a clones were cultured in RPMI containing 10% FBS, insulin ([…]), hydrocortisone ([…]), supplemented with the selection agent hygromycin B ([…]). All lines were grown in a humidified incubator at 37° C. in 95% air, 5% CO2. Cells were harvested using trypsin/EDTA, counted using a haemocytometer, and plated in 100 microliters of the appropriate media, at the following densities, in a 96-well tissue culture plate (Falcon 3075): BT474 10,000 cells/well, HN5 3,000 cells/well. The next day, compounds were diluted in DMEM containing […] gentamicin, at twice the final required concentration, from 10 mM stock solutions in DMSO. 100 microliters/well of these dilutions were added to the 100 microliters of media currently on the cell plates. Medium containing 0.6% DMSO was added to control wells. Compounds diluted in DMEM were added to all cell lines. The final concentration of DMSO in all wells was 0.3%. Cells were returned to the incubator (37° C., […]) for 3 days. Medium was then removed by aspiration. Cell biomass was estimated by staining cells with 90 microliters per well methylene blue (Sigma M9140, 0.5% in 1:1 ethanol:water), and incubation at rt for at least 30 minutes. Stain was removed, and the plates rinsed by immersion in deionized water and air-dried. To release stain from the cells 100 microliters of solubilization solution was added (1% N-lauroyl sarcosine, Sodium salt, Sigma L5125, in PBS), and plates were shaken gently for about 30 minutes. Optical density at 620 nm was measured on a microplate reader. Percent inhibition of cell growth was calculated relative to vehicle treated control wells. Concentration of compound that inhibits 50% of control cell growth (IC50) was interpolated using nonlinear regression (Levenberg-Marquardt) and the equation, y=Vmax*(1−(x/(K+x)))+Y2, where “K” was equal to the IC50. Method B: Celltiter Glo® Growth Inhibition Assays

Colo205 tumor cell lines [2] = experiment: as above; format: cell-based; settings: Homo sapiens, COLO 205, 72 h, Table 3, Method A methylene blue, 3 days
Procedure: as §1

[3] = test system: BT474 and HN5 tumor cell lines; experiment: Celltiter Glo growth inhibition assay (cellular Method B); format: cell-based; settings: Homo sapiens, BT-474, 72 h; Table 2, Method B Celltiter Glo, 3 days; class over BT474 and HN5;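 note: class counts the more potent of the two cell lines (BT474 or HN5)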
Procedure, shortened: (§2)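 BT474, HN5 and Colo205 cells were each grown in their own 10% FBS medium, then exposed to compound for 3 days at 37 °C with 0.3% final DMSO. Growth was read by CellTiter-Glo luminescence as percent inhibition versus vehicle, and IC50 was interpolated by nonlinear regression.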

Colo205 tumor cell lines [4] = experiment: as above; format: cell-based; settings: Homo sapiens, COLO 205, 72 h, Table 3, Method B Celltiter Glo, 3 days
Procedure, shortened: as §2

Compound	IC50 [1]	IC50 (Colo205 tumor cell lines [2])	IC50 [3]	IC50 (Colo205 tumor cell lines [4])	Activity (Method) (ErbB2 or EGFR)
O=C(Cc1cccs1)Nc1cccc(-c2nn3ccccc3c2-c2ccnc(Nc3cccc(-c4cnco4)c3)n2)c1 [Example 1, N-{3-[3-(2-{[3-(1,3-oxazol-5-yl)phenyl]amino}-4-pyrimidinyl)pyrazolo[1,5-a]pyridin-2-yl]phenyl}-2-(2-thienyl)acetamide]	100 to 1000 nM	100 to 1000 nM			+++ (B) (at least one pIC50 measurement of greater than 7 against either ErbB2 or EGFR)
CN(C)CCCNc1ccc(Nc2nccc(-c3c(-c4cccc(NC(=O)Cc5cccs5)c4)nn4ccccc34)n2)cc1F [Example 2, N-[3-(3-{2-[(4-{[3-(Dimethylamino)propyl]amino}-3-fluorophenyl)amino]-4-pyrimidinyl}pyrazolo[1,5-a]pyridin-2-yl)phenyl]-2-(2-thienyl)acetamide]	< 100 nM	100 to 1000 nM			+++ (B) (at least one pIC50 measurement of greater than 7 against either ErbB2 or EGFR)
O=C(Cc1cccs1)Nc1cccc(-c2nn3ccccc3c2-c2ccnc(Nc3cccc(F)c3)n2)c1 [Example 9, N-[3-(3-{2-[(3-Fluorophenyl)amino]-4-pyrimidinyl}pyrazolo[1,5-a]pyridin-2-yl)phenyl]-2-(2-thienyl)acetamide]	> 1000 nM	> 1000 nM			+++ (B) (at least one pIC50 measurement of greater than 7 against either ErbB2 or EGFR)
O=C(Cc1cccs1)Nc1cccc(-c2nn3ccccc3c2-c2ccnc(Nc3cccc(OCCCN4CCOCC4)c3)n2)c1 [Example 11, N-[3-(3-{2-[3-{[3-(4-Morpholinyl)propyl]oxy}phenylamino]-4-pyrimidinyl}pyrazolo[1,5-a]pyridin-2-yl)phenyl]-2-(2-thienyl)acetamide]	100 to 1000 nM	100 to 1000 nM			+++ (B) (at least one pIC50 measurement of greater than 7 against either ErbB2 or EGFR)
O=C(Cc1cccs1)Nc1cccc(-c2nn3ccccc3c2-c2ccnc(Nc3ccc4c(c3)CNCC4)n2)c1 [Example 16, N-(3-{3-[2-(1,2,3,4-Tetrahydro-7-isoquinolinylamino)-4-pyrimidinyl]pyrazolo[1,5-a]pyridin-2-yl}phenyl)-2-(2-thienyl)acetamide]	100 to 1000 nM	100 to 1000 nM			+++ (B) (at least one pIC50 measurement of greater than 7 against either ErbB2 or EGFR)
Cc1ccc(-c2nn3ccccc3c2-c2ccnc(Nc3cc(OCCN(C)C)ccc3C)n2)cc1NC(=O)Cc1cccs1 [Example 57, N-[5-(3-{2-[(5-{[2-(Dimethylamino)ethyl]oxy}-2-methylphenyl)amino]-4-pyrimidinyl}pyrazolo[1,5-a]pyridin-2-yl)-2-methylphenyl]-2-(2-thienyl)acetamide]			> 1000 nM	> 1000 nM	++ (B) (at least one pIC50 measurement greater than 6 against either ErbB2 or EGFR but no measurement greater than pIC50 of 7)
Cc1ccc(-c2nn3ccccc3c2-c2ccnc(Nc3cccc(OCCN(C)C)c3)n2)cc1NC(=O)Cc1cccs1 [Example 58, N-[5-(3-{2-[(3-{[2-(Dimethylamino)ethyl]oxy}phenyl)amino]-4-pyrimidinyl}pyrazolo[1,5-a]pyridin-2-yl)-2-methylphenyl]-2-(2-thienyl)acetamide]			100 to 1000 nM	100 to 1000 nM	++ (B) (at least one pIC50 measurement greater than 6 against either ErbB2 or EGFR but no measurement greater than pIC50 of 7)
Cc1ccc(-c2nn3ccccc3c2-c2ccnc(Nc3ccc4c(c3)CN(C)CC4)n2)cc1NC(=O)Cc1cccs1 [Example 59, N-[2-Methyl-5-(3-{2-[(2-methyl-1,2,3,4-tetrahydro-7-isoquinolinyl)amino]-4-pyrimidinyl}pyrazolo[1,5-a]pyridin-2-yl)phenyl]-2-(2-thienyl)acetamide]			100 to 1000 nM	> 1000 nM	++ (B) (at least one pIC50 measurement greater than 6 against either ErbB2 or EGFR but no measurement greater than pIC50 of 7)
O=C(Cc1cccs1)Nc1cc(-c2nn3ccccc3c2-c2ccnc(Nc3cccc(CN4CCCC4)c3)n2)ccc1F [Example 61, N-{2-Fluoro-5-[3-(2-{[3-(1-pyrrolidinylmethyl)phenyl]amino}-4-pyrimidinyl)pyrazolo[1,5-a]pyridin-2-yl]phenyl}-2-(2-thienyl)acetamide]			100 to 1000 nM	100 to 1000 nM	++ (B) (at least one pIC50 measurement greater than 6 against either ErbB2 or EGFR but no measurement greater than pIC50 of 7)
Cc1ccc(OCCN(C)C)cc1Nc1nccc(-c2c(-c3ccc(F)c(NC(=O)Cc4cccs4)c3)nn3ccccc23)n1 [Example 62, N-[5-(3-{2-[(5-{[2-(Dimethylamino)ethyl]oxy}-2-methylphenyl)amino]-4-pyrimidinyl}pyrazolo[1,5-a]pyridin-2-yl)-2-fluorophenyl]-2-(2-thienyl)acetamide]			> 1000 nM	100 to 1000 nM	+ (B) (no pIC50 measurement greater than 6 against either ErbB2 or EGFR)

Further lines, with some results ahead:

IC50 [1]	IC50 (Colo205 tumor cell lines [2])	IC50 [3]	IC50 (Colo205 tumor cell lines [4])	Compound	Activity (Method) (ErbB2 or EGFR)
100 to 1000 nM	100 to 1000 nM			O=C(Cc1cccs1)Nc1cccc(-c2nn3ccccc3c2-c2ccnc(Nc3cccc(OCCN4CCCC4)c3)n2)c1 [Example 10, N-[3-(3-{2-[(3-{[2-(1-Pyrrolidinyl)ethyl]oxy}phenyl)amino]-4-pyrimidinyl}pyrazolo[1,5-a]pyridin-2-yl)phenyl]-2-(2-thienyl)acetamide]	+++ (B) (at least one pIC50 measurement of greater than 7 against either ErbB2 or EGFR)
100 to 1000 nM	100 to 1000 nM			CN(C)CCCOc1cccc(Nc2nccc(-c3c(-c4cccc(NC(=O)Cc5cccs5)c4)nn4ccccc34)n2)c1 [Example 12, N-[3-(3-{2-[(3-{[3-(Dimethylamino)propyl]oxy}phenyl)-amino]-4-pyrimidinyl}pyrazolo[1,5-a]pyridin-2-yl)phenyl]-2-(2-thienyl)acetamide]	+++ (B) (at least one pIC50 measurement of greater than 7 against either ErbB2 or EGFR)
100 to 1000 nM	100 to 1000 nM			O=C(Cc1cccs1)Nc1cccc(-c2nn3ccccc3c2-c2ccnc(Nc3cccc(OCCCN4CCCC4)c3)n2)c1 [Example 13, N-[3-(3-{2-[(3-{[3-(1-Pyrrolidinyl)propyl]oxy}phenyl)amino]-4-pyrimidinyl}pyrazolo[1,5-a]pyridin-2-yl)phenyl]-2-(2-thienyl)acetamide]	+++ (B) (at least one pIC50 measurement of greater than 7 against either ErbB2 or EGFR)
100 to 1000 nM	100 to 1000 nM			CCN(CC)CCOc1cccc(Nc2nccc(-c3c(-c4cccc(NC(=O)Cc5cccs5)c4)nn4ccccc34)n2)c1 [Example 14, N-[3-(3-{2-[(3-{[2-(Diethylamino)ethyl]oxy}phenyl)amino]-4-pyrimidinyl}pyrazolo[1,5-a]pyridin-2-yl)phenyl]-2-(2-thienyl)acetamide]	+++ (B) (at least one pIC50 measurement of greater than 7 against either ErbB2 or EGFR)
100 to 1000 nM	100 to 1000 nM			CN(C)CCOc1cccc(Nc2nccc(-c3c(-c4cccc(NC(=O)Cc5cccs5)c4)nn4ccccc34)n2)c1 [Example 15, N-[3-(3-{2-[(3-{[2-(Dimethylamino)ethyl]oxy}phenyl)amino]-4-pyrimidinyl}pyrazolo[1,5-a]pyridin-2-yl)phenyl]-2-(2-thienyl)acetamide]	+++ (B) (at least one pIC50 measurement of greater than 7 against either ErbB2 or EGFR)
